Tests used:
[1] = Excretion mass balance in rats after a single oral dose of [14C]MGL-3196 (Group 1); assay type: in vivo, rat; conditions: for Percent Recovery, Carcass / Percent Recovery, Residues / Percent Recovery, Total: totals up to 168 h
Description: (§1) The study utilized 2 groups of male SD rats (Groups 1 and 2) and 1 group of male LE rats (Group 3); which were obtained from Hilltop Lab Animals, Inc. (Scottdale, Pa.). Group 1 was used for evaluation of excretion mass balance; Group 2 was used for evaluation of plasma total radioactivity PK; and Group 3 was used for evaluation of tissue distribution of total radioactivity. All rats received a single PO dose of [^14C]MGL-3196. The target dose was 5 mg/kg using a formulation prepared in a 4% DMSO/96% of 2% Klucel, 0.1% Tween-80, 0.09% methylparaben and 0.01% propylparaben in purified MilliQ water vehicle.
The following studies have been conducted: (a) in vitro drug protein binding, transporter (organic anion transporting polypeptide [OATP], P-glycoprotein [P-gp], breast cancer-related protein [BCRP], and multiple drug resistance protein 1 [MDR1]), and cytochrome P-450 enzyme assays to investigate absorption, distribution, and excretion; (b) in vivo MGL-3196 rat and dog oral PK and bioavailability studies; (c) in vivo ^14C-MGL-3196 rat and dog oral pharmacokinetics, absorption, excretion, and tissue distribution by quantitative whole-body autoradiography (QWBA) studies; and (d) liver disposition of MGL-3196 using an in vitro sandwiched hepatocyte model system (B-CLEAR® technology) in dog (SCDH) and human (SCHH) hepatocytes.

[2] = Plasma total radioactivity pharmacokinetics in SD rats (Group 2); assay type: in vivo, rat
Description: as §1

[3] = Tissue distribution by quantitative whole-body autoradiography, blood and plasma radioactivity in LE rats (Group 3); assay type: in vivo, rat; conditions: for Tissue to Plasma Ratio, Adrenal Gland / Tissue to Plasma Ratio, Heart / Tissue to Plasma Ratio, Kidney / Tissue to Plasma Ratio, Liver / Tissue to Plasma Ratio, Lung / Tissue to Plasma Ratio, Muscle / Tissue to Plasma Ratio, Skin / Tissue to Plasma Ratio, Spleen / Tissue to Plasma Ratio, Thyroid / Tissue to Plasma Ratio, Brain: rat
Description: as §1

[4] = Dog 14C-MGL-3196 mass balance study; assay type: in vivo
Source text: Tables 2A-2B show ^14C-MGL-3196 dog ADME study design.

[5] = male SD rats Group 1, single PO 5 mg/kg, mean
[6] = male SD rats Group 1, single PO 5 mg/kg, mean, through 168 h
[7] = male SD rats Group 2, single PO 5 mg/kg
[8] = male LE rats Group 3, single PO 5 mg/kg
[9] = pigmented male rats, single PO dose
[10] = 3 male beagle dogs, 0-168 hr post-dose, Mean ± SD (% RSD)

CC(C)c1cc(Oc2c(Cl)cc(-n3nc(C#N)c(=O)[nH]c3=O)cc2Cl)n[nH]c1=O [[^14C]MGL-3196]
Percent Recovery, Carcass ([1]; Mean): 1.1% | Percent Recovery, Residues ([1]; Mean): 1.3% | Percent Recovery, Total ([1]; Mean): 87.2% | Percent Recovery, Carcass ([1]; Ra#3): 1.0% | Percent Recovery, Residues ([1]; Ra#3): 0.9% | Percent Recovery, Total ([1]; Ra#3): 87.3% | Percent Recovery, Carcass ([1]; Rat#1): 1.1% | Percent Recovery, Residues ([1]; Rat#1): 1.7% | Percent Recovery, Total ([1]; Rat#1): 82.6% | Percent Recovery, Carcass ([1]; Rat#2): 1.2% | Percent Recovery, Residues ([1]; Rat#2): 1.3% | Percent Recovery, Total ([1]; Rat#2): 91.7% | radioactivity recovered in the cage residues, % of the administered dose [1, 5]: 1.3% | radioactivity recovered in the carcass, % of the administered dose [1, 5]: 1.1% | radioactivity recovered in the feces, % of the administered dose [1, 6]: 68.6% | radioactivity recovered in the urine, % of the administered dose [1, 6]: 16.2% | total recovery of radioactivity, % of the administered dose [1, 6]: 87.2% | mean AUCinf obs of plasma total radioactivity [2, 7]: 25346 ng equiv·h/mL | mean Cmax of plasma total radioactivity [2, 7]: 2230 ng equiv/mL | radioactivity quantifiable in plasma through ([2]; male SD rats, last time point for this group): 48 h | Tissue to Plasma Ratio, Adrenal Gland ([3]; 1 h): 0.34 | Tissue to Plasma Ratio, Heart ([3]; 1 h): 0.30 | Tissue to Plasma Ratio, Kidney ([3]; 1 h): 3.51 | Tissue to Plasma Ratio, Liver ([3]; 1 h): 16.28 | Tissue to Plasma Ratio, Lung ([3]; 1 h): 0.41 | Tissue to Plasma Ratio, Muscle ([3]; 1 h): 0.12 | Tissue to Plasma Ratio, Skin ([3]; 1 h): 0.21 | Tissue to Plasma Ratio, Spleen ([3]; 1 h): 0.17 | Tissue to Plasma Ratio, Thyroid ([3]; 1 h): 0.27 | Tissue to Plasma Ratio, Adrenal Gland ([3]; 2 h): 0.35 | Tissue to Plasma Ratio, Heart ([3]; 2 h): 0.26 | Tissue to Plasma Ratio, Kidney ([3]; 2 h): 2.28 | Tissue to Plasma Ratio, Liver ([3]; 2 h): 12.40 | Tissue to Plasma Ratio, Lung ([3]; 2 h): 0.42 | Tissue to Plasma Ratio, Muscle ([3]; 2 h): 0.07 | Tissue to Plasma Ratio, Skin ([3]; 2 h): 0.23 | Tissue to Plasma Ratio, Spleen ([3]; 2 h): 0.10 | Tissue to Plasma Ratio, Thyroid ([3]; 2 h): 0.45 | Tissue to Plasma Ratio, Adrenal Gland ([3]; 4 h): 0.28 | Tissue to Plasma Ratio, Brain ([3]; 4 h): 0.03 | Tissue to Plasma Ratio, Heart ([3]; 4 h): 0.29 | Tissue to Plasma Ratio, Kidney ([3]; 4 h): 2.97 | Tissue to Plasma Ratio, Liver ([3]; 4 h): 12.76 | Tissue to Plasma Ratio, Lung ([3]; 4 h): 0.48 | Tissue to Plasma Ratio, Muscle ([3]; 4 h): 0.07 | Tissue to Plasma Ratio, Skin ([3]; 4 h): 0.30 | Tissue to Plasma Ratio, Spleen ([3]; 4 h): 0.13 | Tissue to Plasma Ratio, Thyroid ([3]; 4 h): 0.20 | Tissue to Plasma Ratio, Adrenal Gland ([3]; 8 h): 0.56 | Tissue to Plasma Ratio, Brain ([3]; 8 h): 0.09 | Tissue to Plasma Ratio, Heart ([3]; 8 h): 0.62 | Tissue to Plasma Ratio, Kidney ([3]; 8 h): 2.98 | Tissue to Plasma Ratio, Liver ([3]; 8 h): 11.90 | Tissue to Plasma Ratio, Lung ([3]; 8 h): 0.68 | Tissue to Plasma Ratio, Muscle ([3]; 8 h): 0.23 | Tissue to Plasma Ratio, Skin ([3]; 8 h): 0.72 | Tissue to Plasma Ratio, Spleen ([3]; 8 h): 0.36 | Tissue to Plasma Ratio, Thyroid ([3]; 8 h): 0.46 | Tissue to Plasma Ratio, Adrenal Gland ([3]; Cmax): 0.51 | Tissue to Plasma Ratio, Brain ([3]; Cmax): 0.08 | Tissue to Plasma Ratio, Heart ([3]; Cmax): 0.57 | Tissue to Plasma Ratio, Kidney ([3]; Cmax): 2.97 | Tissue to Plasma Ratio, Liver ([3]; Cmax): 12.76 | Tissue to Plasma Ratio, Lung ([3]; Cmax): 0.62 | Tissue to Plasma Ratio, Muscle ([3]; Cmax): 0.21 | Tissue to Plasma Ratio, Skin ([3]; Cmax): 0.65 | Tissue to Plasma Ratio, Spleen ([3]; Cmax): 0.33 | Tissue to Plasma Ratio, Thyroid ([3]; Cmax): 0.42 | Radioactivity concentrations at 1392 h post-dose in 7 of 40 tissues (blood, liver, Harderian gland, pancreas, pigmented skin, lung, eye lens) ([3]; male LE rats): > 7.90 ng equiv/g | radioactivity quantifiable in blood through ([3]; male LE rats): 768 h | radioactivity quantifiable in plasma through ([3]; male LE rats): 168 h | AUCinf obs of blood total radioactivity [3, 8]: 54361 ng equiv·h/g | AUCinf obs of plasma total radioactivity [3, 8]: 20430 ng equiv·h/mL | Cmax of plasma total radioactivity (by LSC) [3, 8]: 1078 ng equiv/mL | Liver AUC (exposure) higher than plasma [3, 9]: approximately 10 × | blood AUC higher than plasma [3, 9]: about 2 × | kidney cortex AUC higher than plasma [3, 9]: approximately 3 × | liver:plasma AUCall ratio [3, 9]: 10.5 | Liver AUC (exposure) higher than plasma ([3]; pigmented male rats, single PO dose, listed as 14C-MGL-3196): ~10 × | Tissue to plasma ratios for all tissues except liver, kidney, urinary bladder, and cecum ([3]; throughout the distribution phase (up to 8 h post-dose)): < 1 | % of Dose in Cage Residue [4, 10]: 4.55 ± 3.399 (74.8) % | % of Dose in Feces [4, 10]: 76.3 ± 25.62 (33.6) % | % of Dose in Urine [4, 10]: 2.57 ± 1.296 (50.4) % | Total % of Dose Recovered (urine + feces + cage residue) [4, 10]: 83.37 ± 24.063 (28.9) % | % of total administered recovered in feces ([4]; dog, 100 mg/kg): ~83% | % of total administered recovered in urine ([4]; dog, 100 mg/kg): 2.5% | share of the radioactivity recovered that was in feces ([4]; dog, 100 mg/kg): at least 92% | share of the radioactivity recovered that was in urine ([4]; dog, 100 mg/kg): 2.7%

From patent publication US11090308B2, “Methods of treating liver disorders or lipid disorders with a THR-beta agonist” (Madrigal Pharmaceuticals, Inc., priority 2016, dated 2021)
